Measured values reported in patent US10131652B2, “Pyrimidinyloxy benzene derivatives as herbicides” (E. I. DU PONT DE NEMOURS AND COMPANY, priority 2014, dated 2018).
Where two headings read alike, the source gives them in different places.

Key:
Experiment in all cases: Test F pre-/postemergence plant response
Type in all cases: in vivo
[1] = tested on: nightshade (eastern black nightshade, Solanum ptycanthum); conditions: Solanum, pre-emergence, scale 0 to 100, read-out: Plant response rating, Nightshade
Description: (§1) Seeds of plant species selected from corn (Zea mays), soybean (Glycine max), velvetleaf (Abutilon theophrasti), lambsquarters (Chenopodium album), wild poinsettia (Euphorbia heterophylla), palmer pigweed (Amaranthus palmeri), waterhemp (common waterhemp, Amaranthus rudis), surinam grass (Brachiaria decumbens), large (Lg) crabgrass (Digitaria sanguinalis), Brazilian crabgrass (Digitaria horizontalis), fall panicum (Panicum dichotomiflorum), giant foxtail (Setaria faberii), green foxtail (Setaria viridis), goosegrass (Eleusine indica), johnsongrass (Sorghum halepense), ragweed (common ragweed, Ambrosia elatior), barnyardgrass (Echinochloa crus-galli), sandbur (southern sandbur, Cenchrus echinatus), arrowleaf sida (Sida rhombifolia), Italian ryegrass (Lolium multiflorum), dayflower (Virginia (VA) dayflower, Commelina virginica), field bindweed (Convolvulus arvensis), cocklebur (common cocklebur, Xanthium strumarium), momingglory (Ipomoea coccinea), nightshade (eastern black nightshade, Solanum ptycanthum), kochia (Kochia scoparia), yellow nutsedge (Cyperus esculentus), and hairy beggarticks (Bidens pilosa), were planted into a silt loam soil and treated preemergence with test chemicals formulated in a non-phytotoxic solvent mixture which included a surfactant.
(§2) At the same time, plants from these crop and weed species and also waterhemp_RES1, (ALS & Triazine resistant common waterhemp, Amaranthus rudis), and waterhemp_RES2, (ALS & HPPD resistant common waterhemp, Amaranthus rudis) were treated with postemergence applications of test chemicals formulated in the same manner. Plants ranged in height from 2 to 18 cm for postemergence treatments (1- to 4-leaf stage).
(§3) Treated plants and controls were maintained in a greenhouse for 14 to 21 days, after which time all species were compared to controls and visually evaluated. Plant response ratings, summarized in Table F, are based on a scale of 0 to 100 where 0 is no effect and 100 is complete control. A dash (-) response means no test result.

[2] = tested on: morningglory (Ipomoea coccinea); conditions: Ipomoea, pre-emergence, scale 0 to 100, read-out: Plant response rating, Morningglory
Description: as §1, §2, §3

[3] = tested on: large (Lg) crabgrass (Digitaria sanguinalis); conditions: Digitaria sanguinalis, pre-emergence, scale 0 to 100, read-out: Plant response rating, Crabgrass, Large
Description: as §1, §2, §3

[4] = tested on: lambsquarters (Chenopodium album); conditions: Chenopodium album, pre-emergence, scale 0 to 100, read-out: Plant response rating, Lambsquarters
Description: as §1, §2, §3

[5] = tested on: barnyardgrass (Echinochloa crus-galli); conditions: Echinochloa crus-galli, scale 0 to 100, read-out: Plant response rating, Barnyardgrass
Description: as §1, §2, §3

[6] = tested on: johnsongrass (Sorghum halepense); conditions: Sorghum halepense, pre-emergence, scale 0 to 100, read-out: Plant response rating, Johnsongrass
Description: as §1, §2, §3

[7] = tested on: Italian ryegrass (Lolium multiflorum); conditions: Lolium multiflorum, scale 0 to 100, read-out: Plant response rating, Ryegrass, Italian; for pest or weed control at 16 g/ha: 16 g ai/ha; for pest or weed control at 31 g/ha: 31 g ai/ha; for pest or weed control at 125 g/ha: 125 g ai/ha
Description: as §1, §2, §3

[8] = tested on: ragweed (common ragweed, Ambrosia elatior); conditions: Ambrosia artemisiifolia, pre-emergence, scale 0 to 100, read-out: Plant response rating, Ragweed
Description: as §1, §2, §3

[9] = tested on: Brazilian crabgrass (Digitaria horizontalis); conditions: Digitaria horizontalis, scale 0 to 100, read-out: Plant response rating, Crabgrass, Brazil
Description: as §1, §2, §3

[10] = post-emergence, 8 g ai/ha Postemergence
[11] = post-emergence, 16 g ai/ha Postemergence
[12] = post-emergence, 31 g ai/ha Postemergence
[13] = post-emergence, 62 g ai/ha Postemergence
[14] = post-emergence, 125 g ai/ha Postemergence
[15] = pre-emergence, 8 g ai/ha Preemergence
[16] = pre-emergence, 16 g ai/ha Preemergence
[17] = pre-emergence, 31 g ai/ha Preemergence
[18] = pre-emergence, 62 g ai/ha Preemergence
[19] = pre-emergence, 125 g ai/ha Preemergence

FC(F)c1cc(-c2ccccc2Oc2ncc(Cl)cn2)no1 [Compound 35, 5-chloro-2-[2-[5-(difluoromethyl)-3-isoxazolyl]phenoxy]pyrimidine]
pest or weed control at 8 g/ha ([1]; 8 g ai/ha Preemergence): 75%
pest or weed control at 16 g/ha ([1]; 16 g ai/ha Preemergence): 95%
pest or weed control at 31 g/ha ([1]; 31 g ai/ha Preemergence): 98%
pest or weed control at 125 g/ha ([1]; 125 g ai/ha Preemergence): 100%
pest or weed control at 62 g/ha ([1]; Preemergence): 98%
pest or weed control at 8 g/ha ([2]; 8 g ai/ha Preemergence): 0%
pest or weed control at 16 g/ha ([2]; 16 g ai/ha Preemergence): 0%
pest or weed control at 31 g/ha ([2]; 31 g ai/ha Preemergence): 0%
pest or weed control at 125 g/ha ([2]; 125 g ai/ha Preemergence): 65%
pest or weed control at 62 g/ha ([2]; Preemergence): 30%
pest or weed control at 8 g/ha ([3]; 8 g ai/ha Preemergence): 0%
pest or weed control at 16 g/ha ([3]; 16 g ai/ha Preemergence): 60%
pest or weed control at 31 g/ha ([3]; 31 g ai/ha Preemergence): 75%
pest or weed control at 62 g/ha ([3]; 62 g ai/ha Preemergence): 75%
pest or weed control at 125 g/ha ([3]; 125 g ai/ha Preemergence): 100%
pest or weed control at 8 g/ha ([4]; 8 g ai/ha Preemergence): 90%
pest or weed control at 16 g/ha ([4]; 16 g ai/ha, Preemergence): 98%
pest or weed control at 31 g/ha ([4]; 31 g ai/ha, Preemergence): 100%
pest or weed control at 125 g/ha ([4]; 125 g ai/ha, Preemergence): 100%
pest or weed control at 62 g/ha ([4]; Preemergence): 100%
pest or weed control at 8 g/ha [5, 10]: 0%
pest or weed control at 16 g/ha [5, 11]: 0%
pest or weed control at 31 g/ha [5, 12]: 0%
pest or weed control at 62 g/ha [5, 13]: 10%
pest or weed control at 125 g/ha [5, 14]: 20%
pest or weed control at 8 g/ha [5, 15]: 0%
pest or weed control at 16 g/ha [5, 16]: 0%
pest or weed control at 31 g/ha [5, 17]: 20%
pest or weed control at 62 g/ha [5, 18]: 10%
pest or weed control at 125 g/ha [5, 19]: 65%
pest or weed control at 8 g/ha ([6]; 8 g ai/ha Preemergence): 0%
pest or weed control at 16 g/ha ([6]; 16 g ai/ha Preemergence): 0%
pest or weed control at 31 g/ha ([6]; 31 g ai/ha Preemergence): 0%
pest or weed control at 125 g/ha ([6]; 125 g ai/ha Preemergence): 65%
pest or weed control at 62 g/ha ([6]; Preemergence): 35%
pest or weed control at 8 g/ha [7, 10]: 0%
pest or weed control at 16 g/ha ([7]; post-emergence, Postemergence): 0%
pest or weed control at 31 g/ha ([7]; post-emergence, Postemergence): 0%
pest or weed control at 62 g/ha ([7]; post-emergence, 62 g ai/ha, Postemergence): 0%
pest or weed control at 125 g/ha ([7]; post-emergence, Postemergence): 0%
pest or weed control at 8 g/ha [7, 15]: 0%
pest or weed control at 16 g/ha ([7]; pre-emergence, Preemergence): 0%
pest or weed control at 31 g/ha ([7]; pre-emergence, Preemergence): 15%
pest or weed control at 125 g/ha ([7]; pre-emergence, Preemergence): 70%
pest or weed control at 62 g/ha ([7]; pre-emergence, Preemergence): 65%
pest or weed control at 8 g/ha ([8]; 8 g ai/ha Preemergence): 0%
pest or weed control at 16 g/ha ([8]; 16 g ai/ha Preemergence): 0%
pest or weed control at 31 g/ha ([8]; 31 g ai/ha Preemergence): 0%
pest or weed control at 125 g/ha ([8]; 125 g ai/ha Preemergence): 70%
pest or weed control at 62 g/ha ([8]; Preemergence): 40%
pest or weed control at 8 g/ha [9, 10]: 10%
pest or weed control at 16 g/ha [9, 11]: 20%
pest or weed control at 31 g/ha [9, 12]: 30%
pest or weed control at 62 g/ha [9, 13]: 35%
pest or weed control at 125 g/ha [9, 14]: 40%
pest or weed control at 8 g/ha [9, 15]: 0%
pest or weed control at 16 g/ha [9, 16]: 95%
pest or weed control at 31 g/ha [9, 17]: 98%
pest or weed control at 62 g/ha [9, 18]: 100%
pest or weed control at 125 g/ha [9, 19]: 100%
